One assay addresses T1, PI3Kα (Homo sapiens, UniProt P42336).
T1 construct: purchased Carna Biosciences
The experiment in a line: PI3K kinases inhibition in vitro (ADP-Glo), PI3Kα. It counts as biochemical. Here is the method:
(§1) Tested compounds were dissolved in 100% DMSO, and thus obtained solutions were serially diluted in 1× reaction buffer. Recombinant kinase was diluted in a reaction mixture comprising 5× reaction buffer, substrate (1 mM sodium diacetate 4,5-bisphosphate phosphatydylinositol (PIP2) solution in 40 mM Tris buffer), and water. To the wells in a 96-wells plate, 5 μl of compounds solutions and 15 μl of the kinase solution in the reaction mixture were added. To initiate interaction of tested chemical compounds with the enzyme, the plate was incubated for 10 minutes at suitable temperature in a plate thermostat with orbital shaking at 600 rpm. Negative control wells contained all above reagents except tested compound and kinase, and positive control wells contained all above reagents except tested compounds. Enzymatic reaction was initiated by adding 5 μl of 150 μM ATP solution, subsequently the plate was incubated for 1 hour at 25° C. or 30° C. (depending on PI3K isoform tested) in plate thermostat with orbital shaking of the plate contents at 600 rpm. Reaction conditions are presented below in Table 12.
(§2) Detection of ADP formed in the enzymatic reaction was then performed using ADP-Glo Kinase Assay (Promega). To the wells of a 96-well plate 25 μl of ADP-Glo Reagent were added, and the plate was incubated for 40 minutes at 25° C. in a plate thermostat with orbital shaking at 600 rpm. Then to the wells of 96-well plate 50 μl of Kinase Detection Reagent were added and the plate was incubated for 40 minutes at 25° C. in a plate thermostat with orbital shaking at 600 rpm. After incubation time, luminescence intensity in a well was measured by Victor Light luminometer (Perkin Elmer, Inc.).
(§3) IC50 values were determined on the basis of luminescence intensity measurements in wells containing tested compounds at different concentrations and in control wells. These values were calculated with Graph Pad 5.03 software by fitting the curve using non-linear regression. Each compound was tested at least in quadruplicates (4 wells) on two 96-well plates using at least 4 wells of each of the controls.
(In general: ADP-Glo first removes unused ATP, then detects ADP through luciferase.)

The target in a further assay is T2, PI3Kδ (Homo sapiens, UniProt O00329).
T2 construct: purchased Merck Millipore
T2 sequence (O00329 whole entry): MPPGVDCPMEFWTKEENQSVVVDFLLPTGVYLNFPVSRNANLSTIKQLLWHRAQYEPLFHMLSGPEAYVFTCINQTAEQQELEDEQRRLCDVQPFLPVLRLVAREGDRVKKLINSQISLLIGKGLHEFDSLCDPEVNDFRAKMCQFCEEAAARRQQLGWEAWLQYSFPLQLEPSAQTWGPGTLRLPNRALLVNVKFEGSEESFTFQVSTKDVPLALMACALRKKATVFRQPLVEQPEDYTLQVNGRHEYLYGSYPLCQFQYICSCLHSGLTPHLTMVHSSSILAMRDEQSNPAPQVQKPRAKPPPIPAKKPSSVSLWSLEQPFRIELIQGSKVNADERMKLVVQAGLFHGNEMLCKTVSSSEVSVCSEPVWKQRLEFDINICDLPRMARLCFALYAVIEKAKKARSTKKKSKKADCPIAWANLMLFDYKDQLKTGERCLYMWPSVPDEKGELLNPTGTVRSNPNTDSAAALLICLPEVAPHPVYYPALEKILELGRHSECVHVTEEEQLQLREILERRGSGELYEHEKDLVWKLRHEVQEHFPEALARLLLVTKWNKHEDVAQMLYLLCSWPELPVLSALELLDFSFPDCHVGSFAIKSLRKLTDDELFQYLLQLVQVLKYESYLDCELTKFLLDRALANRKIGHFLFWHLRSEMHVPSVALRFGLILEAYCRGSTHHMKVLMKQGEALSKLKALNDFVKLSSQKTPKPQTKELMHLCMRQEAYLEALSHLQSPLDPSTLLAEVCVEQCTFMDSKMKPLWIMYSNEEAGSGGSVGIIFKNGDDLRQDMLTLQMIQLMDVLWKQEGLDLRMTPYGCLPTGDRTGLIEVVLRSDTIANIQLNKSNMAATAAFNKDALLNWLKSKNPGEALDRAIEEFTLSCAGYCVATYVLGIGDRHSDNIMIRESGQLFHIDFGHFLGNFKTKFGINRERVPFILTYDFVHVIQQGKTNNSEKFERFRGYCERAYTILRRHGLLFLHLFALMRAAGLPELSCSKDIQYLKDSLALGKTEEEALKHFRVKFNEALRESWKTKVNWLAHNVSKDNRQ
T2 sequence (P27986 whole entry, further chain): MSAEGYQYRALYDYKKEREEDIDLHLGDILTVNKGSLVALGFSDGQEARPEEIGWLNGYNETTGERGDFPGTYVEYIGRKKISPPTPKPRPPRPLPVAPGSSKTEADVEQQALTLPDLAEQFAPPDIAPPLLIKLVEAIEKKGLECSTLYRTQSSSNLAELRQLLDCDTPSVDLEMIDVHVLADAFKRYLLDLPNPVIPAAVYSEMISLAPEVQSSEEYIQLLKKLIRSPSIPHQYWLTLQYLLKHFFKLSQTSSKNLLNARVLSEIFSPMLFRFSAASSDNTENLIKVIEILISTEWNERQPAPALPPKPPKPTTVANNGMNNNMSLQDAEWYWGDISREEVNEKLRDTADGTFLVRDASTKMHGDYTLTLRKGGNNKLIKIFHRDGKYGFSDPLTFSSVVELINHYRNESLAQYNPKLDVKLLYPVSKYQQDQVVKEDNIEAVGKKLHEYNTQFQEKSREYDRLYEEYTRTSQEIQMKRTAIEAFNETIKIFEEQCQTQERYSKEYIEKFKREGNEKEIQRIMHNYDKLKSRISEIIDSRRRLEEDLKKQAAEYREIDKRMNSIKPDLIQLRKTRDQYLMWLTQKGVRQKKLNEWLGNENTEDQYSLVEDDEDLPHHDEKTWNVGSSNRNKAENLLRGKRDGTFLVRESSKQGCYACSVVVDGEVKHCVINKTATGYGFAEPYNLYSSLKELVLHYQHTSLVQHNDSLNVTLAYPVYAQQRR
Nature of the assay: PI3K kinases inhibition in vitro (ADP-Glo), PI3Kδ. Type of assay: biochemical. Here is the method: as §1, §2, §3

[1] abbreviates: averaged, recombinant kinase, 25° C., 1 h, PIP2 30 μM, read-out: PI3Kδ IC50.

Like-named read-outs stand apart in the source and are kept apart here.

T1 sequence (P42336 whole entry): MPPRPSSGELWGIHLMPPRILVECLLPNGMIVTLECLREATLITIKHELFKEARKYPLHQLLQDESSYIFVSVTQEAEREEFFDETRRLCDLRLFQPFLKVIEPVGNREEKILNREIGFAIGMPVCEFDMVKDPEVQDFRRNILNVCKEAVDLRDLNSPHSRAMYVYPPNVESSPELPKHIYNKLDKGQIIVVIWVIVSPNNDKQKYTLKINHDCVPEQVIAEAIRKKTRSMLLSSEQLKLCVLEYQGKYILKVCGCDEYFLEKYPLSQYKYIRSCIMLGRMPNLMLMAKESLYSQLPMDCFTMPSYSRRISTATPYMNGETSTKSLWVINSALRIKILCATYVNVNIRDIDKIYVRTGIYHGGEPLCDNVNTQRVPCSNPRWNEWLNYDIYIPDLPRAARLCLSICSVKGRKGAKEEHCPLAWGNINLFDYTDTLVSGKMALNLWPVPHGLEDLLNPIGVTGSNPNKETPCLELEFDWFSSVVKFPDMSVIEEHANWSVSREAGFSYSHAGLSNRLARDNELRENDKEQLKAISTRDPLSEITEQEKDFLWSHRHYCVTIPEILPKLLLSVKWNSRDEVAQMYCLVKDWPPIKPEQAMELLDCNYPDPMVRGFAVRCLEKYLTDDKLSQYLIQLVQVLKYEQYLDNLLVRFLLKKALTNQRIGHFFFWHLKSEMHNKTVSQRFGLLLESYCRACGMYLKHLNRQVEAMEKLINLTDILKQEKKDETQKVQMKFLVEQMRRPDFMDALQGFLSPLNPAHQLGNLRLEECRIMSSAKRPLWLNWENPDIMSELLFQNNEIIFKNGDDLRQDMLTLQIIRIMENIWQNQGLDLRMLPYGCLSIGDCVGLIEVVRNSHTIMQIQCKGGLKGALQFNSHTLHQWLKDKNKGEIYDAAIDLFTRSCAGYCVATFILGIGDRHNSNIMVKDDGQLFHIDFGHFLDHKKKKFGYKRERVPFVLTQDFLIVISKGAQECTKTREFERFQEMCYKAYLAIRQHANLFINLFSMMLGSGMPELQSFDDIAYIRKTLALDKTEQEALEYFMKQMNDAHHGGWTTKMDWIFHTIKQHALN
T1 sequence (P27986 whole entry partner): as the sequence (P27986 whole entry, further chain) above

With `CS(=O)(=O)N1CCN(Cc2cc3nc(-c4cccc5[nH]ccc45)cc(N4CCOCC4)n3n2)CC1` [Example 2, 5-(1H-indol-4-yl)-2-((4-(methyl-sulphonyl)piperazin-1-yl)methyl)-7-(morpholin-4-yl)pyrazolo[1,5-a]-pyrimidine], the IC50 (usually the concentration at which inhibition is half-maximal) was more than 1 µM on PI3Kα and 0.1 to 1 µM against PI3Kδ.
On to `CN1CCN(C2CCN(Cc3cc4nc(-c5cccc6[nH]ccc56)cc(N5CCOCC5)n4n3)CC2)CC1` [Example 3, 5-(1H-indol-4-yl)-2-((4-(4-methylpiperazin-1-yl)piperidin-1-yl)methyl)-7-(morpholin-4-yl)pyrazolo[1,5-a] pyrimidine], for which the IC50 against PI3Kα is more than 1 µM; against PI3Kδ, less than 0.1 µM.
In the same order, the values of `COc1ccc(N2CCN(Cc3cc4nc(-c5cccc6[nH]ccc56)cc(N5CCOCC5)n4n3)CC2)cc1` [Example 6, 5-(1H-indol-4-yl)-2-((4-(4-methoxyphenyl)piperazin-1-yl)-methyl)-7-(morpholin-4-yl)-pyrazolo[1,5-a]pyrimidine] are more than 1 µM and 0.1 to 1 µM.
Consider `CC(C)(C)N1CCN(Cc2cc3nc(-c4cccc5[nH]ncc45)cc(N4CCOCC4)n3n2)CC1` [Example 12, 2-((4-tert-butylpiperazin-1-yl)methyl)-5-(1H-indazol-4-yl)-7-(morpholin-4-yl)pyrazolo[1,5-a]-pyrimidine], for which the IC50 was more than 1 µM against PI3Kα and less than 0.1 µM on PI3Kδ (setting [1]).
In the same order, the values of `CN1CCN(C2CCN(Cc3cc4nc(-c5c(F)ccc6[nH]ccc56)cc(N5CCOCC5)n4n3)CC2)CC1` [Example 14, 5-(5-fluoro-1H-indol-4-yl)-2-((4-(4-methylpiperazin-1-yl)piperidin-1-yl)methyl)-7-(morpholin-4-yl)-pyrazolo[1,5-a]pyrimidine] are more than 1 µM and less than 0.1 µM.
As for `CC(C)(O)C1CCN(Cc2cc3nc(-c4cccc5[nH]ncc45)cc(N4CCOCC4)n3n2)CC1` [Example 15, 2-((4-(2-hydroxypropan-2-yl)-piperidin-1-yl)methyl)-5-(1H-indazol-4-yl)-7-(morpholin-4-yl)-pyrazolo[1,5-a]pyrimidine], the IC50 was more than 1 µM against PI3Kα and 0.1 to 1 µM on PI3Kδ (setting [1]).
Consider `CC(C)(O)C1CCN(Cc2cc3nc(-c4cnc(N)nc4)cc(N4CCOCC4)n3n2)CC1` [Example 18, 5-(2-aminopyrimidin-5-yl)-2-((4-(2-hydroxypropan-2-yl)piperidin-1-yl)methyl)-7-(morpholin-4-yl)-pyrazolo[1,5-a]pyrimidine], for which the IC50 is more than 1 µM against PI3Kα and 0.1 to 1 µM on PI3Kδ (setting [1]).
`CN1CCN(Cc2cc3nc(-c4cccc5[nH]ccc45)cc(N4CCOCC4)n3n2)CC1` [Example 21, 5-(1H-indol-4-yl)-2-((4-methyl-piperazin-1-yl)methyl)-7-(morpholin-4-yl)pyrazolo[1,5-a]-pyrimidine]: the half-maximal inhibitory concentration (IC50) against PI3Kα was more than 1 µM; at PI3Kδ, 0.1 to 1 µM.
Regarding `O=S1(=O)CCN(Cc2cc3nc(-c4cccc5[nH]ccc45)cc(N4CCOCC4)n3n2)CC1` [Example 23, 2-((1,1-dioxothio-morpholin-1-yl)-methyl)-5-(1H-indol-4-yl)-7-(morpholin-4-yl)pyrazolo[1,5-a]-pyrimidine], the IC50 against PI3Kα is more than 1 µM; on PI3Kδ, 0.1 to 1 µM.
As for `COC(=O)C1CCN(Cc2cc3nc(-c4cccc5[nH]ccc45)cc(N4CCOCC4)n3n2)CC1` [Example 24, Methyl 1-((5-(1H-indol-4-yl)-7-(morpholin-4-yl)pyrazolo[1,5-a]-pyrimidin-2-yl)methyl)piperidin-4-carboxylate], the IC50 against PI3Kα is more than 1 µM; at PI3Kδ it was 0.1 to 1 µM.
Turning to `c1cc(-c2cc(N3CCOCC3)n3nc(CN4CCN(CC5CC5)CC4)cc3n2)c2cc[nH]c2c1` [Example 26, 2-((4-(cyclopropylmethyl)piperazin-1-yl)methyl)-5-(1H-indol-4-yl)-7-(morpholin-4-yl)pyrazolo[1,5-a]-pyrimidine], the values for the IC50 against PI3Kα and on PI3Kδ were more than 1 µM and less than 0.1 µM, respectively.
In the same order, the values of `c1cc(-c2cc(N3CCOCC3)n3nc(CN4CCN(C5CCCC5)CC4)cc3n2)c2cc[nH]c2c1` [Example 27, 2-((4-cyclopentylpiperazin-1-yl)-methyl)-5-(1H-indol-4-yl)-7-(morpholin-4-yl)pyrazolo[1,5-a]-pyrimidine] are more than 1 µM and less than 0.1 µM.
As to `c1cc(-c2cc(N3CCOCC3)n3nc(CN4CCN(C5COC5)CC4)cc3n2)c2cc[nH]c2c1` [Example 34], the IC50 on PI3Kα was more than 1 µM; on PI3Kδ, less than 0.1 µM.
Regarding `c1cc(-c2cc(N3CCOCC3)n3nc(CN4C[C@@H]5C[C@H]4CN5C4COC4)cc3n2)c2cc[nH]c2c1` [Example 36, 5-(1H-indol-4-yl)-2-(((1S, 4S)-2-(oxetan-3-yl)-2,5-diazabicyclo [2.2.1]hept-2-yl)methyl)-7-(morpholin-4-yl)pyrazolo[1,5-a]-pyrimidine], the IC50 is more than 1 µM against PI3Kα and less than 0.1 µM at PI3Kδ.
`O=C(Nc1ccccc1)NC1CCN(Cc2cc3nc(-c4cccc5[nH]ccc45)cc(N4CCOCC4)n3n2)CC1` [Example 37] yielded a 50% inhibitory concentration (IC50) against PI3Kδ of 0.1 to 1 µM.
Consider `CCNC(=O)NC1CCN(Cc2cc3nc(-c4cccc5[nH]ccc45)cc(N4CCOCC4)n3n2)CC1` [Example 38], for which the half-maximal inhibitory concentration (IC50) is more than 1 µM against PI3Kα and 0.1 to 1 µM at PI3Kδ.
Take `CCc1nc2ccccc2n1-c1cc(N2CCOCC2)n2nc(CN3CCN(S(C)(=O)=O)CC3)cc2n1` [Example 42, 5-(2-ethylbenzimidazol-1-yl)-2-((4-(methylsulphonyl)piperazin-1-yl)methyl)-7-(morpholin-4-yl)-pyrazolo[1,5-a]pyrimidine]: the IC50 on PI3Kα is more than 1 µM; at PI3Kδ (setting [1]), 0.1 to 1 µM.
Turning to `CCc1nc2ccccc2n1-c1cc(N2CCOCC2)n2nc(CN3CCC(N(C)C)CC3)cc2n1` [Example 43, 5-(2-ethylbenzimidazo-1-yl)-2-((4-(dimethylamino)piperidin-1-yl)-methyl)-7-(morpholin-4-yl)-pyrazolo[1,5-a]pyrimidine], the IC50 is more than 1 µM on PI3Kα and 0.1 to 1 µM on PI3Kδ (setting [1]).
Regarding `CCc1nc2ccccc2n1-c1cc(N2CCOCC2)n2nc(CN3CCN(C(C)(C)C)CC3)cc2n1` [Example 47, 5-(2-ethylbenzimidazol-1-yl)-2-((4-tert-butylpiperazin-1-yl)methyl)-7-(morpholin-4-yl)pyrazolo[1,5-a]-pyrimidine], the IC50 is more than 1 µM against PI3Kα and less than 0.1 µM on PI3Kδ (setting [1]).
For `Cc1nc2ccccc2n1-c1cc(N2CCOCC2)n2nc(CN3CCN(C(C)(C)C)CC3)cc2n1` [Example 48, 5-(2-methylbenzimidazol-1-yl)-2-((4-tert-butylopiperazin-1-yl)-methyl)-7-(morpholin-4-yl)-pyrazolo[1,5-a]pyrimidine], the IC50 against PI3Kα was more than 1 µM; on PI3Kδ (setting [1]), 0.1 to 1 µM.
Regarding `Cc1nc2ccccc2n1-c1cc(N2CCOCC2)n2nc(CN3CCC(C(C)(C)O)CC3)cc2n1` [Example 49, 5-(2-methylbenzimidazol-1-yl)-2-((4-(2-hydroxypropan-2-yl)-piperidin-1-yl)methyl)-7-(morpholin-4-yl)pyrazolo[1,5-a]-pyrimidine], the values for the IC50 on PI3Kα and on PI3Kδ (setting [1]) were more than 1 µM and 0.1 to 1 µM, respectively.
As to `CC(C)c1nc2ccccc2n1-c1cc(N2CCOCC2)n2nc(CN3CCN(C(C)(C)C)CC3)cc2n1` [Example 52, 5-(2-iso-propylbenzimidazol-1-yl)-2-((4-tert-butylpiperazin-1-yl)-methyl)-7-(morpholin-4-yl)-pyrazolo[1,5-a]pyrimidine], the IC50 against PI3Kα was more than 1 µM; at PI3Kδ (setting [1]) it was 0.1 to 1 µM.
As for `CC(C)c1nc2ccccc2n1-c1cc(N2CCOCC2)n2nc(CN3CCC(C(C)(C)O)CC3)cc2n1` [Example 53, 5-(2-iso-propylbenzimidazol-1-yl)-2-((4-(2-hydroxypropan-2-yl)-piperidin-1-yl)methyl)-7-(morpholin-4-yl)pyrazolo[1,5-a]-pyrimidine], the IC50 on PI3Kα was more than 1 µM; on PI3Kδ (setting [1]) it was 0.1 to 1 µM.
`C[C@@H]1CN(C2CN(Cc3cc4nc(-n5c(C(F)F)nc6ccccc65)cc(N5CCOCC5)n4n3)C2)C[C@H](C)O1` [Example 65, 5-(2-(difluoromethyl)benzimidazol-1-yl)-2-((3-((2R,6S)-2,6-dimethylmorpholin-4-yl)azetidin-1-yl)methyl)-7-(morpholin-4-yl)-pyrazolo[1,5-a]pyrimidine]: the IC50 on PI3Kδ (setting [1]) is less than 0.1 µM.
Regarding `COC1CN(C2CN(Cc3cc4nc(-n5c(C(F)F)nc6ccccc65)cc(N5CCOCC5)n4n3)C2)C1` [Example 67, 5-(2-(difluoromethyl)benzimidazol-1-yl)-2-((3-(3-methoxyazetidin-1-yl)azetidin-1-yl)methyl)-7-(morpholin-4-yl)pyrazolo[1,5-a]-pyrimidine], the IC50 on PI3Kδ (setting [1]) is less than 0.1 µM.
